# In US9345241B2, “Composition having biocide activity for aqueous preparations” (Omya International AG, priority 2008, dated 2016):
# How the values were obtained:
# [1] = tested on: Pseudomonas putida; experiment: Biocidal activity of EDDM biocide in calcium carbonate slurries, plate count; type: cell-based
# Description: (§1) All quoted bacterial counts (values are in cfu/ml) in the Tables herebelow are determined after 5 days following plate-out and in accordance with counting method described in “Bestimmung von aeroben mesophilen Keimen”, Schweizerisches Lebensmittelbuch, chapter 56, section 7.01, edition of 1985, revised version of 1988.
# (§2) (Ethylenedioxy)dimethanol (EDDM), an aldehyde-releasing biocide, was introduced into 50 g samples of each of calcium carbonate slurry 1 and calcium carbonate slurry 2 in an amount corresponding to 1500 ppm of aldehyde-releasing EDDM biocide based on the weight of the weight of water in the slurry. In parallel, control samples of calcium carbonate slurry 1 and calcium carbonate slurry 2 were prepared in absence of EDDM.
# (§3) Half of the samples of calcium carbonate slurry 1 and calcium carbonate slurry 2 were then inoculated with 1 mL of Methylobacterium extorquens, while the remaining samples where inoculated with 1 mL of Pseudomonas putida. Each of the samples was incubated at 30° C. for 72 hours. Thereafter, a 1:10 dilution in phosphate buffered saline (PBS) was plated on plate count agar (PCA). These plates were incubated at 30° C. and analysed after 5 days.
# [2] = tested on: Methylobacterium extorquens; experiment: as above; type: cell-based
# Description: as §1, §2, §3
# [3] = EDDM 1500 ppm in combination with lithium
# [4] = EDDM alone at 1500 ppm, no lithium
smiles,measurement,setting,value
"OCOCCOCO [EDDM, (Ethylenedioxy)dimethanol]",bacterial count of the suspension,[1]; [3],below 10^4 cfu/ml
same,resistance of the strain to the biocide implemented alone,[1]; [4],show resistance
same,bacterial count of the suspension,[2]; [3],below 10^4 cfu/ml
same,resistance of the strain to the biocide implemented alone,[2]; [4],show resistance
